Source: PubChem BioAssay (NCI)
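Test compounds were applied to cells in 96-well plates for 48 hours at 5 doses. At the GI50, growth is halved. TGI denotes the concentration required for complete inhibition of growth.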

Experiments:
Assay in all cases: DTP human tumour cell line panel, 48 h
[1] = system: M14 melanoma
[2] = system: IGROV1 ovarian
[3] = system: DMS 273 small cell lung
[4] = system: SNB-78 CNS
[5] = system: K-562 leukemia
[6] = system: SN12C renal
[7] = system: CAKI-1 renal
[8] = system: U251 CNS
[9] = system: COLO 205 colon
[10] = system: RPMI-8226 leukemia

## O=C1c2ccccc2C(=O)c2sc(Nc3ccc(Cl)c(Cl)c3)nc21
[1]
  TGI: 9.86 µM
[2]
  TGI: 10.1 µM
[3]
  TGI: 22.1 µM
[4]
  TGI: 6.68 µM
[5]
  TGI: 17.9 µM
[6]
  TGI: 3.23 µM
[7]
  TGI: 8.83 µM
[8]
  TGI: 6.05 µM
[9]
  TGI: 15.4 µM
[10]
  TGI: 5 µM

## CCOC(=O)C1(Cc2ccc3ccccc3c2)CCCCCN1 (centres undefined)
[1]
  TGI: 48.1 µM
[2]
  TGI: > 100 µM
[3]
  TGI: 38.4 µM
[4]
  TGI: > 100 µM
[5]
  TGI: 68.7 µM
[6]
  TGI: > 100 µM
[7]
  TGI: > 100 µM
[8]
  TGI: > 100 µM
[9]
  TGI: 34.4 µM
[10]
  TGI: 27.6 µM

## O=c1[nH]c2c(O)cccc2c2cc3c(c(O)c12)OCO3
[1]
  TGI: 52.4 µM
[2]
  TGI: > 100 µM
[3]
  TGI: 59.3 µM
[4]
  TGI: 80.4 µM
[5]
  TGI: > 100 µM
[6]
  TGI: 92.3 µM
[7]
  TGI: 40.8 µM
[8]
  TGI: 63.4 µM
[9]
  TGI: 34.5 µM
[10]
  TGI: 92 µM

## O=[N+]([O-])c1cc(/C=N/NS(=O)(=O)c2ccc(F)cc2)c(O)c([N+](=O)[O-])c1
[1]
  TGI: 52.2 µM
[2]
  TGI: > 100 µM
[3]
  TGI: 98.9 µM
[4]
  TGI: > 100 µM
[5]
  TGI: > 100 µM
[6]
  TGI: > 100 µM
[7]
  TGI: > 100 µM
[8]
  TGI: 44.7 µM
[9]
  TGI: 34.5 µM
[10]
  TGI: > 100 µM

## NC(=O)CCC(NC(=O)C(F)(F)F)C(=O)O (centres undefined)
[1]
  TGI: > 100 µM
[2]
  TGI: > 100 µM
[3]
  TGI: > 100 µM
[4]
  TGI: > 100 µM
[5]
  TGI: > 100 µM
[6]
  TGI: > 100 µM
[7]
  TGI: > 100 µM
[8]
  TGI: > 100 µM
[9]
  TGI: > 100 µM
[10]
  TGI: > 100 µM

## C=C=[CH][Sn]([c]1ccccc1)([c]1ccccc1)[c]1ccccc1
[1]
  GI50: 1.81 µM
  TGI: 3.47 µM
[2]
  GI50: 1.63 µM
  TGI: 4.47 µM
[4]
  GI50: 3.1 µM
  TGI: 9.29 µM
[5]
  GI50: 0.722 µM
  TGI: 3.3 µM
[6]
  GI50: 1.68 µM
  TGI: 3.19 µM
[7]
  GI50: 1.74 µM
  TGI: 4.29 µM
[8]
  GI50: 1.66 µM
  TGI: 3.16 µM
[9]
  GI50: 1.52 µM
  TGI: 2.87 µM
[10]
  GI50: 1.4 µM
  TGI: 4.36 µM

## C[N+]1=c2c3cccc4cccc(c(=O)n2CCC1)c43
[1]
  TGI: 33.2 µM
[2]
  TGI: > 100 µM
[3]
  TGI: 56.7 µM
[4]
  TGI: 94.6 µM
[5]
  TGI: 32 µM
[6]
  TGI: 52.7 µM
[7]
  TGI: 84 µM
[8]
  TGI: > 100 µM
[9]
  TGI: 32.2 µM
[10]
  TGI: 52.3 µM

## COC(=O)C1=Cc2c(OC)cc(OC)c(OC)c2[C@H](c2cc(OC)c(OC)cc2OC)C1C(=O)OC (some centres undefined)
[1]
  TGI: > 100 µM
[2]
  TGI: > 100 µM
[3]
  TGI: > 100 µM
[4]
  TGI: > 100 µM
[5]
  TGI: 46.9 µM
[6]
  TGI: > 100 µM
[7]
  TGI: > 100 µM
[8]
  TGI: > 100 µM
[9]
  TGI: > 100 µM
[10]
  TGI: > 100 µM

## CC12C(=O)N(CCN)C(=O)C1C1c3ccccc3C2c2ccccc21 (centres undefined)
[1]
  TGI: > 100 µM
[2]
  TGI: > 100 µM
[3]
  TGI: > 100 µM
[4]
  TGI: > 100 µM
[5]
  TGI: > 100 µM
[6]
  TGI: > 100 µM
[7]
  TGI: > 100 µM
[8]
  TGI: > 100 µM
[9]
  TGI: > 100 µM
[10]
  TGI: > 100 µM

## CC12OC3CC(O1)C1(C=O)C4CCC5(C)C(c6ccc(=O)oc6)CCC5(O)C4CCC1(C3)O2 (centres undefined)
[1]
  TGI: 0.596 µM
[2]
  TGI: 2.44 µM
[3]
  TGI: 0.235 µM
[4]
  TGI: 3.66 µM
[5]
  TGI: > 100 µM
[7]
  TGI: 0.729 µM
[8]
  TGI: 1.24 µM
[9]
  TGI: 1.69 µM
[10]
  TGI: 0.304 µM

## CC(C)NC(=O)O/N=C1\CCC2[C@@H]3CC=C4C[C@@H](OC(=O)NC(C)C)CC[C@]4(C)C3CC[C@]12C (some centres undefined)
[1]
  TGI: 1.95 µM
[3]
  TGI: 2.82 µM
[4]
  TGI: 6.77 µM
[5]
  TGI: 5.85 µM
[6]
  TGI: 3.14 µM
[7]
  TGI: 4.29 µM
[8]
  TGI: 2.8 µM
[9]
  TGI: 1.29 µM
[10]
  TGI: 2.96 µM

## CC1=NN(c2ccccc2)C(=O)C1N=Nc1ccc(Br)c(C)c1 (centres undefined)
[1]
  TGI: > 100 µM
[2]
  TGI: > 100 µM
[3]
  TGI: > 100 µM
[4]
  TGI: > 100 µM
[5]
  TGI: > 100 µM
[6]
  TGI: > 100 µM
[7]
  TGI: > 100 µM
[8]
  TGI: > 100 µM
[9]
  TGI: > 100 µM
[10]
  TGI: > 100 µM

## CCc1oc2ccc(OC)c3c2c1C=CC=C3
[1]
  TGI: > 100 µM
[2]
  TGI: > 100 µM
[3]
  TGI: > 100 µM
[4]
  TGI: > 100 µM
[5]
  TGI: > 100 µM
[6]
  TGI: > 100 µM
[8]
  TGI: > 100 µM
[9]
  TGI: > 100 µM
[10]
  TGI: > 100 µM

## OC1C2C=CCC1CCC2 (centres undefined)
[1]
  TGI: > 100 µM
[2]
  TGI: > 100 µM
[3]
  TGI: > 100 µM
[4]
  TGI: > 100 µM
[5]
  TGI: > 100 µM
[6]
  TGI: > 100 µM
[7]
  TGI: > 100 µM
[8]
  TGI: > 100 µM
[9]
  TGI: > 100 µM
[10]
  TGI: > 100 µM

## CCC[CH2][Sn]1([CH2]CCC)[O]C(=O)c2cc(C)ccc2[O]1
[1]
  GI50: 0.342 µM
  TGI: 1.5 µM
[2]
  GI50: 0.924 µM
  TGI: 2.21 µM
[3]
  GI50: 0.519 µM
  TGI: 1.73 µM
[4]
  GI50: 0.368 µM
  TGI: 1.01 µM
[5]
  GI50: 0.222 µM
  TGI: 1.16 µM
[6]
  GI50: 0.547 µM
  TGI: 1.86 µM
[7]
  GI50: 0.169 µM
  TGI: 0.785 µM
[8]
  GI50: 0.462 µM
  TGI: 1.54 µM
[9]
  GI50: 0.46 µM
  TGI: 1.5 µM
[10]
  GI50: 0.193 µM
  TGI: 0.599 µM

## CS(=O)(=O)c1nc(Cl)c(Cl)c(C#N)c1Cl
[1]
  TGI: 3.64 µM
[2]
  TGI: 14.1 µM
[3]
  TGI: 24.6 µM
[4]
  TGI: > 36 µM
[5]
  TGI: 20.6 µM
[6]
  TGI: 5.9 µM
[7]
  TGI: 1.69 µM
[8]
  TGI: 11.7 µM
[9]
  TGI: 3.08 µM
[10]
  TGI: 14.6 µM

## Cc1cc2c(cc1C)[n+]([O-])c(-c1c(Cl)cccc1Cl)c(N)[n+]2[O-]
[1]
  TGI: > 100 µM
[2]
  TGI: > 100 µM
[3]
  TGI: 86.3 µM
[4]
  TGI: > 100 µM
[5]
  TGI: > 100 µM
[6]
  TGI: > 100 µM
[7]
  TGI: 95.1 µM
[8]
  TGI: > 100 µM
[9]
  TGI: 38.4 µM
[10]
  TGI: > 100 µM

## Cc1cc(C)c2[s+]snc2c1
[1]
  TGI: > 100 µM
[2]
  TGI: > 100 µM
[3]
  TGI: > 100 µM
[4]
  TGI: > 100 µM
[5]
  TGI: > 100 µM
[6]
  TGI: > 100 µM
[7]
  TGI: > 100 µM
[8]
  TGI: > 100 µM
[9]
  TGI: > 100 µM
